The record followed here is patent US5776912A, “Lipophilic oligosaccharide antibiotic compositions” (Schering Corporation, priority 1996, dated 1998).

Series [1] has as its system methicillin-susceptible staphylococci. The series is described as follows: Agar dilution MIC, methicillin-susceptible staphylococci. The series is classed as cell-based.
Series [2] relates to Mycoplasma sp. The series is described as follows: MIC, Mycoplasma sp. The format is cell-based.
The test system of series [3] is enterococci resistant to vancomycin. The series is described as follows: microbe, parasite or virus in culture. The series is classed as cell-based.
For series [4], the system named is various clinical and laboratory strains of staphylococci. The series is described as follows: Bactericidal activity, staphylococci. The format is cell-based.
Series [5] concerns Legionella pneumophila. The series is classed as cell-based.
Series [6] deals with Borrelia burgdorferi. Put plainly: MIC, Borrelia burgdorferi. The format is cell-based.
Series [7] has as its system Enterococcus faecalis. The series is described as follows: Agar dilution MIC, Enterococcus faecalis. The series is classed as cell-based. The following applies: printed for E. faecalis and E. faecium together. (Agar dilution tests growth on a series of plates holding different concentrations.)
Series [8] relates to methicillin-resistant staphylococci. The series is classed as cell-based.
The subject of series [9] is bacteria. The format is cell-based.
Series [10] concerns L. longbeacheae. Put plainly: MIC, L. longbeacheae. The series is classed as cell-based.
For series [11], the system named is gram-negative bacteria. Put plainly: Agar dilution MIC, gram-negative bacteria. The series is classed as cell-based.
In series [12] the test system is Enterococcus faecium. Put plainly: Agar dilution MIC, Enterococcus faecium. The series is classed as cell-based. As to conditions: printed for E. faecalis and E. faecium together.
Series [13] relates to Trichomonas vaginalis. The series is described as follows: MIC, Trichomonas vaginalis. The series is classed as cell-based.
Series [14] concerns various strains of streptococci. Put plainly: Agar dilution MIC, streptococci. The series is classed as cell-based.
For series [15], the system named is E. faecalis 88032810. Put plainly: Mouse protection model, PD50 (Table 4), E. faecalis 88032810. The following applies: read-out: PD50. The series is classed as in vivo, Enterococcus faecalis (infection in CF1 mice). From the text: (§1) PD 50 Valves Showing Efficacy of Composition Containing the
(§2) Compound of Formula III Against Bacterial Infections^1 in CF1
(§3) ^1 Injections were by IP route
(§4) ^2 CFI mice are Charles River CFI, ca 20 g while male mice
(§5) ^4 PD50 Dosing routes for drugs: IV for A, B and C; SC for D in
(§6) ^5. Multiple of one LD100 (lethal dose to kill 100% of animals) of
(§7) organism given to mice. (Measure of severity of the infection.)
(§8) See Table 4 for PD50 values for the compositions of the compound of formula III including a preferred composition of the present invention (Drug B) compared to those for vancomycin (Drug C) and amikacin (drug D).

The test system of series [16] is E. faecalis 91031103 (Vancomycin resistant). Put plainly: Mouse protection model, PD50 (Table 4), vancomycin resistant E. faecalis 91031103. As to conditions: Enterococcus faecalis, read-out: PD50. The format is in vivo, Enterococcus faecalis (infection in CF1 mice).
Source text: as §1, §2, §3, §4, §5, §6, §7, §8

Series [17] relates to S. aureus 78100502. The series is described as follows: Mouse protection model, PD50 (Table 4), S. aureus 78100502. The series is classed as in vivo, Staphylococcus aureus (infection in CF1 mice). The following applies: Staphylococcus aureus, drug IV, 20 × LD, 2.2 × 10^8 CFU/mouse IP.
Source text: as §1, §2, §3, §4, §5, §6, §7, §8

The test system of series [18] is S. aureus 85111205. Put plainly: Mouse protection model, PD50 (Table 4), S. aureus 85111205. The series is classed as in vivo, Staphylococcus aureus (infection in CF1 mice). The following applies: Staphylococcus aureus, 85111205, iv, read-out: PD50.
Source text: as §1, §2, §3, §4, §5, §6, §7, §8

Series [19] in a line: Formation of aqueous solutions. The following applies: in water. The format is physicochemical.
Series [20] can be described thus: pH of aqueous solutions formed with bases. The format is physicochemical.
[21] abbreviates: agar dilution, Mueller-Hinton agar.

Counter-ions that a name gives are not always drawn. Like-named read-outs stand apart in the source and are kept apart here. Some results are limits rather than exact numbers.

As to “56-deacetyl-57-demethyl-45-O-de(2-methyl-1 -oxopropyl)-12-O-(2,3,6-trideoxy-3-C-methyl-4-O-methyl-3-nitro-α-L-arabino-hexopyransoyl)-flambamycin 56-(2,4-dihydroxy-6-methylbenzoate) [compound of Formula III]”, the “GMM (geometric mean MIC)” value is 0.5 µg/mL in series [1] (setting [21]); 0.49 µg/mL in series [7]; 0.1 µg/mL in [8] (setting [21]); over 760 µg/mL in series [11]; 0.49 µg/mL in series [12]. Also, the “potency relative to vancomycin” value in [1] (more potent than vancomycin) and in series [8] (more potent than vancomycin) was 2 fold in each case. Also, the MICs in series [2] is 200 µg/mL; in series [5], 2.5 µg/mL; in series [6] it was under 0.49 µg/mL; in series [10], 2.5 µg/mL; in [13], over 192 µg/mL; in series [14] it was under 0.5 µg/mL. The “activity (in words)” value in series [3] (enterococci resistant to vancomycin) is reported as “good activity”. Moreover, the bactericidal activity entry in [4] was “moderate bactericidal activity”. Besides, the “cross resistance with other antibiotics” value in [9] is on record as “No cross resistance with other antibiotics was observed”.
For `NCC[C@H](O)C(=O)N[C@@H]1C[C@H](N)[C@@H](O[C@H]2O[C@H](CN)[C@@H](O)[C@H](O)[C@H]2O)[C@H](O)[C@H]1O[C@H]1O[C@H](CO)[C@@H](O)[C@H](N)[C@H]1O` [Drug D, Amikacin], the ED50 in series [15] (Enterococcus faecalis, 88032810, drug SC, 10 × LD, 9.7 × 10^8 CFU/mouse IP) was determined as 115 mg/kg; in series [16] (drug SC, 1.7 × LD, 1.5 × 10^9 CFU/mouse IP), 49 mg/kg.
In the case of `CN[C@H](CC(C)C)C(=O)N[C@H]1C(=O)N[C@@H](CC(N)=O)C(=O)N[C@H]2C(=O)N[C@H]3C(=O)N[C@H](C(=O)N[C@H](C(=O)O)c4cc(O)cc(O)c4-c4cc3ccc4O)[C@H](O)c3ccc(c(Cl)c3)Oc3cc2cc(c3O[C@@H]2O[C@H](CO)[C@@H](O)[C@H](O)[C@H]2O[C@H]2C[C@](C)(N)[C@H](O)[C@H](C)O2)Oc2ccc(cc2Cl)[C@H]1O` [Drug C, Vancomycin HCl], the ED50 in series [17] was found to be 6 mg/kg; in series [18], 26 mg/kg; in [15] (Enterococcus faecalis, 88032810, iv) it was 10 mg/kg; in [16] (iv) it was 100 mg/kg. Also, the MIC in series [3] (read-out: MICs) was over 128 µg/mL.
Regarding `[Ba+2].[OH-].[OH-]` [barium hydroxide], the “formation of aqueous solution” value in [19] was “did not form aqueous solutions”.
Same read-out and setting: under `[Ca+2].[OH-].[OH-]` [calcium hydroxide] stands “did not form aqueous solutions”.
Take `NCCCC[C@H](N)C(=O)O` [Lysine]: the “pH of aqueous solution” value in series [20] is “less than 9.3”.
